Tested on: 966289-007-R4-J1-PDC complex spheroid viability
Experiment: Anticancer human tumor 966289-007-R4-J1-PDC patient-derived pancreatic adenocarcinoma cell line growth inhibition [RAS]
Conditions: for IC50: curve of first compound; for viability, T/C: stronger effect = lower value
Description: RAS pathway inhibitors in Combinations in Complex Spheroids
A high-throughput screen of multi-cell type tumor spheroids was designed to identify active combinations of RAS pathway inhibitors and targeted small molecules. Complex spheroids include a stromal component modeled by human endothelial cells (HUVEC) and fibroblasts modeled by human mesenchymal stem cells (MSCs). The concentration ranges selected for each drug and investigational agent were based upon clinically achievable concentrations if the clinical Cmax of the agent was known.
Compounds. The drugs and investigational agents: abemaciclib (NSC768073), cobimetinib (NSC768068), divarasib (GDC6063, NSC841802), docetaxel (NSC628503), GDC-1971 (RLY-1971, NSC841576), gemcitabine (NSC613327), inavolisib (NSC800729), ipatasertib (NSC767898), KB-0742 (NSC834161), MRTX-1133 (NSC836407), osimertinib (NSC779217), RMC-4630 (NSC839698), RMC-6236 (NSC851965), RMC-6291 (NSC852671), Ro-3306 (NSC812927), sapanisertib (NSC764658), SN-38 (NSC673596), staurosporine (NSC755774), SY5609 (NSC837396), and tovorafenib (DAY101, NSC766906), were obtained from the National Cancer Institute (NCI) Developmental Therapeutics Program Chemical Repository. The FDA-approved anticancer drug set is available from the NCI Developmental Therapeutics Program. […] The stock solutions were prepared in dimethyl sulfoxide (DMSO, Sigma-Aldrich, St. Louis, MO, cat. D2650) at 800-fold the tested concentration and stored at -70 degrees C prior to their use. All drugs and investigational agents were tested over a range starting from a high concentration at or near the clinical Cmax and decreasing in half-log increments. If the clinical Cmax for an agent had not been determined, the highest concentration tested was 10 microM.
Cell Culture. All cells were maintained in an incubator at 37 degrees C and 5% CO2 with 95% humidity. The PDC lines were cultured according to standard operating procedures established by the NCI PDMR. All PDCs were thawed and cultured in Matrigel-coated flasks prepared with a working solution of 1X Ham's F-12 nutrient mix, without supplementation (Invitrogen, Waltham, MA, cat. 11765054), 100 U/mL penicillin-streptomycin (Invitrogen, cat. 15140122), and 2.5% Matrigel (Corning Inc., Corning, NY, cat. 354248) for the first three passages. The 362531-283-R-J2-PDC and 782815-120-R-J1-PDC lines were cultured in 6C/Colon 1B media, which includes advanced DMEM/F-12 (Thermo Fisher Scientific, cat. 12634028), 10 mM HEPES (Thermo Fisher Scientific, cat. 15630080), 1X GlutaMAX supplement (Thermo Fisher Scientific, cat. 35050061), 0.1 mg/mL primocin (InvivoGen, San Diego, CA, cat. ant-pm-2), 10% defined fetal bovine serum, heat inactivated (HyClone Laboratories Inc., Logan, UT, cat. SH30070.03HI), 50% L-WRN conditioned media (ATCC, cat. CRL-3276), 1.25 mM N-Acetyl-L-cysteine (Sigma-Aldrich, cat. A9165), 10 mM nicotinamide (Sigma-Aldrich, cat. N0636), 1X B-27 supplement (Thermo Fisher Scientific, cat. 17504044), 1X N-2 supplement (Thermo Fisher Scientific, cat. 17502048), 50 ng/mL human EGF (Thermo Fisher Scientific, cat. PHG0311), and 10 microM Y-27632 dihydrochloride (Tocris Bioscience, cat. 1254). The K12877-001-R-J1-PDC line was cultured in 6I media, which includes all 6C/Colon 1B media plus 10 ng/mL human FGF-10 (PeproTech, cat. 100-26), 1 ng/mL human FGF-2 (PeproTech, cat. 100-18B), 1 µM prostaglandin E2 (Tocris Bioscience, cat. 2296), […] hydrocortisone (Sigma-Aldrich, cat. H4001), and […] bovine insulin (Sigma-Aldrich, cat. I6634). The K86415-001-R-J1-PDC line was cultured in 6D media, which includes all 6C/Colon 1B media components minus the L-WRN conditioned media. The 485176-168-R4-J1-PDC was cultured in PANC media, which includes all 6C/Colon 1B media plus 100 ng/mL human FGF-10 (PeproTech, cat. 100-26), 500 nM SB-431542 (Selleckchem, cat. S1067), and 10 nM gastrin (Tocris Bioscience, cat. 3006). […]
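Also: spheroids exposed to agents for one week before readout.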
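For viability, T/C in this document: percent viability relative to DMSO vehicle control wells as 100%.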

In the case of `CCc1c2c(nc3ccc(O)cc13)-c1cc3c(c(=O)n1C2)COC(=O)[C@]3(O)CC` + CCn1c(-c2cccnc2C(C)OC)c2c3cc(ccc31)N1CCOC(CC(NC(=O)C(C(C)C)N(C)C(=O)C3(F)CCN(C(=O)C#CC(C)(C)N(C)C)CC3)C(=O)N3CCCC(N3)C(=O)OCC(C)(C)C2)C1, the IC50 (second compound 0.000949 µM) is reported as 1.76 nM, the IC50 (second compound 0.003 µM) is reported as 1.73 nM and the IC50 (second compound 0.00949 µM) is reported as 1.62 nM. The IC50 (second compound 0.03 µM) was 1.18 nM, the IC50 (second compound 0.0949 µM) was 0.96 nM and the IC50 (second compound 0.3 µM) was < 0.949 nM. The viability, T/C (second compound 0.000949 µM, first compound 0.000949 µM) was 103%, the viability, T/C (second compound 0.000949 µM, first compound 0.003 µM) was 4.09% and the viability, T/C (second compound 0.000949 µM, first compound 0.00949 µM) was 0.96%. It also gave a viability, T/C (second compound 0.000949 µM, first compound 0.03 µM) of 0.65%, a viability, T/C (second compound 0.000949 µM, first compound 0.0949 µM) of 0.49% and a viability, T/C (second compound 0.000949 µM, first compound 0.3 µM) of 0.69%. The viability, T/C (second compound 0.003 µM, first compound 0.000949 µM) was 99.8%, the viability, T/C (second compound 0.003 µM, first compound 0.003 µM) was 4.15% and the viability, T/C (second compound 0.003 µM, first compound 0.00949 µM) was 0.79%. It also gave a viability, T/C (second compound 0.003 µM, first compound 0.03 µM) of 0.63%, a viability, T/C (second compound 0.003 µM, first compound 0.0949 µM) of 0.64% and a viability, T/C (second compound 0.003 µM, first compound 0.3 µM) of 0.67%. The viability, T/C (second compound 0.00949 µM, first compound 0.000949 µM) was 89.8%, the viability, T/C (second compound 0.00949 µM, first compound 0.003 µM) was 4.69% and the viability, T/C (second compound 0.00949 µM, first compound 0.00949 µM) was 1.12%. The viability, T/C (second compound 0.00949 µM, first compound 0.03 µM) was 0.52%, the viability, T/C (second compound 0.00949 µM, first compound 0.0949 µM) was 0.51% and the viability, T/C (second compound 0.00949 µM, first compound 0.3 µM) was 0.56%. For the same compound, the viability, T/C (second compound 0.03 µM, first compound 0.000949 µM) was 60.8%, the viability, T/C (second compound 0.03 µM, first compound 0.003 µM) was 3.34% and the viability, T/C (second compound 0.03 µM, first compound 0.00949 µM) was 1.17%. It also gave a viability, T/C (second compound 0.03 µM, first compound 0.03 µM) of 0.76%, a viability, T/C (second compound 0.03 µM, first compound 0.0949 µM) of 0.58% and a viability, T/C (second compound 0.03 µM, first compound 0.3 µM) of 0.79%. The viability, T/C (second compound 0.0949 µM, first compound 0.000949 µM) was 50.5%, the viability, T/C (second compound 0.0949 µM, first compound 0.003 µM) was 2.92% and the viability, T/C (second compound 0.0949 µM, first compound 0.00949 µM) was 0.55%. The viability, T/C (second compound 0.0949 µM, first compound 0.03 µM) was 0.56%, the viability, T/C (second compound 0.0949 µM, first compound 0.0949 µM) was 0.56% and the viability, T/C (second compound 0.0949 µM, first compound 0.3 µM) was 0.53%. The viability, T/C (second compound 0.3 µM, first compound 0.000949 µM) was 18.4%, the viability, T/C (second compound 0.3 µM, first compound 0.003 µM) was 1.07% and the viability, T/C (second compound 0.3 µM, first compound 0.00949 µM) was 0.76%. For the same compound, the viability, T/C (second compound 0.3 µM, first compound 0.03 µM) was 0.59%, the viability, T/C (second compound 0.3 µM, first compound 0.0949 µM) was 0.68% and the viability, T/C (second compound 0.3 µM, first compound 0.3 µM) was 0.5%.

In the case of `C=CC(=O)N1CCN(c2nc(OCC3CCCN3C)nc3c(F)c(-c4nc(N)cc(C)c4C(F)(F)F)c(Cl)cc23)C(C)C1` (centres undefined) + CCn1c(-c2cc(N3CCN(C)CC3)cnc2C(C)OC)c2c3cc(ccc31)-c1csc(n1)CC(NC(=O)C1CC1C)C(=O)N1CCCC(N1)C(=O)OCC(C)(C)C2, the IC50 (second compound 0.000949 µM) is reported as > 1000 nM, the IC50 (second compound 0.003 µM) is reported as > 1000 nM and the IC50 (second compound 0.00949 µM) is reported as > 1000 nM. For the same compound, the IC50 (second compound 0.03 µM) was > 1000 nM, the IC50 (second compound 0.0949 µM) was > 1000 nM and the IC50 (second compound 0.3 µM) was > 1000 nM. It also gave a viability, T/C (second compound 0.000949 µM, first compound 0.00316 µM) of 131%, a viability, T/C (second compound 0.000949 µM, first compound 0.01 µM) of 119% and a viability, T/C (second compound 0.000949 µM, first compound 0.0316 µM) of 138%. The viability, T/C (second compound 0.000949 µM, first compound 0.1 µM) was 69.5%, the viability, T/C (second compound 0.000949 µM, first compound 0.316 µM) was 77.9% and the viability, T/C (second compound 0.000949 µM, first compound 1 µM) was 94.2%. It also gave a viability, T/C (second compound 0.003 µM, first compound 0.00316 µM) of 115%, a viability, T/C (second compound 0.003 µM, first compound 0.01 µM) of 138% and a viability, T/C (second compound 0.003 µM, first compound 0.0316 µM) of 83.6%. For the same compound, the viability, T/C (second compound 0.003 µM, first compound 0.1 µM) was 78.6%, the viability, T/C (second compound 0.003 µM, first compound 0.316 µM) was 85.3% and the viability, T/C (second compound 0.003 µM, first compound 1 µM) was 86.1%. The viability, T/C (second compound 0.00949 µM, first compound 0.00316 µM) was 101%, the viability, T/C (second compound 0.00949 µM, first compound 0.01 µM) was 111% and the viability, T/C (second compound 0.00949 µM, first compound 0.0316 µM) was 105%. The viability, T/C (second compound 0.00949 µM, first compound 0.1 µM) was 74.1%, the viability, T/C (second compound 0.00949 µM, first compound 0.316 µM) was 90.3% and the viability, T/C (second compound 0.00949 µM, first compound 1 µM) was 94.4%. For the same compound, the viability, T/C (second compound 0.03 µM, first compound 0.00316 µM) was 80.2%, the viability, T/C (second compound 0.03 µM, first compound 0.01 µM) was 124% and the viability, T/C (second compound 0.03 µM, first compound 0.0316 µM) was 108%. For the same compound, the viability, T/C (second compound 0.03 µM, first compound 0.1 µM) was 82%, the viability, T/C (second compound 0.03 µM, first compound 0.316 µM) was 110% and the viability, T/C (second compound 0.03 µM, first compound 1 µM) was 87.7%. The viability, T/C (second compound 0.0949 µM, first compound 0.00316 µM) was 102%, the viability, T/C (second compound 0.0949 µM, first compound 0.01 µM) was 128% and the viability, T/C (second compound 0.0949 µM, first compound 0.0316 µM) was 98.3%. It also gave a viability, T/C (second compound 0.0949 µM, first compound 0.1 µM) of 104%, a viability, T/C (second compound 0.0949 µM, first compound 0.316 µM) of 125% and a viability, T/C (second compound 0.0949 µM, first compound 1 µM) of 103%. The viability, T/C (second compound 0.3 µM, first compound 0.00316 µM) was 79%, the viability, T/C (second compound 0.3 µM, first compound 0.01 µM) was 137% and the viability, T/C (second compound 0.3 µM, first compound 0.0316 µM) was 128%. It also gave a viability, T/C (second compound 0.3 µM, first compound 0.1 µM) of 97.8%, a viability, T/C (second compound 0.3 µM, first compound 0.316 µM) of 135% and a viability, T/C (second compound 0.3 µM, first compound 1 µM) of 106%.

Source: PubChem BioAssay AID2060897 (Molecular Pharmacology Branch, DTP, NCI, 2025)
